{"source": "BindingDB's records for PubMed 37191335", "about": "(Tongji University, 2023)", "key": {"[1]": {"assay": "Inhibition of TNF-alpha (unknown origin) binding to TNFR1 assessed as dissociation constant of TNF-alpha preincubated for 15 mins by MST assay (Rvb = 13.4 nM)"}, "[2]": {"assay": "Inhibition of TNF-alpha (unknown origin) binding to TNFR2 assessed as dissociation constant of TNF-alpha preincubated for 15 mins by MST assay (Rvb = 30.5 nM)"}}, "note": "Peptide text beside a SMILES is read from it."}
{"smiles": "C[C@H](N)C(=O)N[C@@H](CS)C(=O)N[C@@H](Cc1cnc[nH]1)C(=O)N[C@@H](C)C(=O)N[C@@H](Cc1c[nH]c2ccccc12)C(=O)N[C@@H](C)C(=O)N1CCC[C@H]1C(=O)N[C@H](C(=O)N[C@@H](CCCNC(=N)N)C(=O)O)[C@@H](C)O", "note": "(H-ACHAWAPTR-OH)", "values": [{"measurement": "Kd", "setting": "[1]", "result": 996, "unit": "nM"}, {"measurement": "Kd", "setting": "[2]", "result": 321, "unit": "nM"}]}
